Experimental data reported in BindingDB's records for patent US20230382863 (Ikena Oncology, 2023).

Biological target: Mitogen-activated protein kinase kinase kinase 1/RAF proto-oncogene serine/threonine-protein kinase (Homo sapiens, UniProt P04049+Q02750)
Assay: AlphaLISA Assay
Protocol: 5 μL 4×MEK1 stock solution was added to wells A1-P20 by multichannel pipettes. […] 5 μL 4×CRAF stock solution at different concentrations or 5 μL or 10 μL AlphaLISA buffer was added by multichannel pipettes. The plate was sealed, centrifuged at 1000 rpm for 1 minute, and incubated at room temperature for 60 minutes. 5 μL 4×glutathione acceptor beads were first added to all wells by multichannel pipettes. The ambient light was subsequently adjusted to <100 lux (light meter) before adding 5 μL 4×nickel chelate donor beads to the same wells. From this step on, the plate was covered with a black plate cover, centrifuged at 1000 rpm for 1 minute, and incubated at room temperature for 60 minutes.

Sequence of Mitogen-activated protein kinase kinase kinase 1/RAF proto-oncogene serine/threonine-protein kinase (P04049 whole entry): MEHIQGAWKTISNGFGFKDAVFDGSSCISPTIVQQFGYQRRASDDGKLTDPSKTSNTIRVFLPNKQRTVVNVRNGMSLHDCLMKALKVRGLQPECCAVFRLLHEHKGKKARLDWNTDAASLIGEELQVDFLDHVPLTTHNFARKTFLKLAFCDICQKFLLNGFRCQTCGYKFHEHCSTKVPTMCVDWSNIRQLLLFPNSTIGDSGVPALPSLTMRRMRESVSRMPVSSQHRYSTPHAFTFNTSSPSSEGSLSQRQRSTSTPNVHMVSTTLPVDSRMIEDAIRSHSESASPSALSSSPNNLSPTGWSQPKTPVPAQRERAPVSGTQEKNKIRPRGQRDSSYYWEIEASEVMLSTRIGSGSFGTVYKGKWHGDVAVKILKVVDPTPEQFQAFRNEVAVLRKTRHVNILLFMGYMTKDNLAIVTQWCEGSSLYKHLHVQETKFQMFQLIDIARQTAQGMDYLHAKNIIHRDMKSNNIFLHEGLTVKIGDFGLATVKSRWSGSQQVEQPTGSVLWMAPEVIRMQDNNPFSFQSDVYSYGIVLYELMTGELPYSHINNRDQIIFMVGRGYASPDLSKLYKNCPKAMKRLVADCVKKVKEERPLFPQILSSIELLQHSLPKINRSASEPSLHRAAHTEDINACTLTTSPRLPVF
Sequence of Mitogen-activated protein kinase kinase kinase 1/RAF proto-oncogene serine/threonine-protein kinase (Q13233 whole entry, further chain): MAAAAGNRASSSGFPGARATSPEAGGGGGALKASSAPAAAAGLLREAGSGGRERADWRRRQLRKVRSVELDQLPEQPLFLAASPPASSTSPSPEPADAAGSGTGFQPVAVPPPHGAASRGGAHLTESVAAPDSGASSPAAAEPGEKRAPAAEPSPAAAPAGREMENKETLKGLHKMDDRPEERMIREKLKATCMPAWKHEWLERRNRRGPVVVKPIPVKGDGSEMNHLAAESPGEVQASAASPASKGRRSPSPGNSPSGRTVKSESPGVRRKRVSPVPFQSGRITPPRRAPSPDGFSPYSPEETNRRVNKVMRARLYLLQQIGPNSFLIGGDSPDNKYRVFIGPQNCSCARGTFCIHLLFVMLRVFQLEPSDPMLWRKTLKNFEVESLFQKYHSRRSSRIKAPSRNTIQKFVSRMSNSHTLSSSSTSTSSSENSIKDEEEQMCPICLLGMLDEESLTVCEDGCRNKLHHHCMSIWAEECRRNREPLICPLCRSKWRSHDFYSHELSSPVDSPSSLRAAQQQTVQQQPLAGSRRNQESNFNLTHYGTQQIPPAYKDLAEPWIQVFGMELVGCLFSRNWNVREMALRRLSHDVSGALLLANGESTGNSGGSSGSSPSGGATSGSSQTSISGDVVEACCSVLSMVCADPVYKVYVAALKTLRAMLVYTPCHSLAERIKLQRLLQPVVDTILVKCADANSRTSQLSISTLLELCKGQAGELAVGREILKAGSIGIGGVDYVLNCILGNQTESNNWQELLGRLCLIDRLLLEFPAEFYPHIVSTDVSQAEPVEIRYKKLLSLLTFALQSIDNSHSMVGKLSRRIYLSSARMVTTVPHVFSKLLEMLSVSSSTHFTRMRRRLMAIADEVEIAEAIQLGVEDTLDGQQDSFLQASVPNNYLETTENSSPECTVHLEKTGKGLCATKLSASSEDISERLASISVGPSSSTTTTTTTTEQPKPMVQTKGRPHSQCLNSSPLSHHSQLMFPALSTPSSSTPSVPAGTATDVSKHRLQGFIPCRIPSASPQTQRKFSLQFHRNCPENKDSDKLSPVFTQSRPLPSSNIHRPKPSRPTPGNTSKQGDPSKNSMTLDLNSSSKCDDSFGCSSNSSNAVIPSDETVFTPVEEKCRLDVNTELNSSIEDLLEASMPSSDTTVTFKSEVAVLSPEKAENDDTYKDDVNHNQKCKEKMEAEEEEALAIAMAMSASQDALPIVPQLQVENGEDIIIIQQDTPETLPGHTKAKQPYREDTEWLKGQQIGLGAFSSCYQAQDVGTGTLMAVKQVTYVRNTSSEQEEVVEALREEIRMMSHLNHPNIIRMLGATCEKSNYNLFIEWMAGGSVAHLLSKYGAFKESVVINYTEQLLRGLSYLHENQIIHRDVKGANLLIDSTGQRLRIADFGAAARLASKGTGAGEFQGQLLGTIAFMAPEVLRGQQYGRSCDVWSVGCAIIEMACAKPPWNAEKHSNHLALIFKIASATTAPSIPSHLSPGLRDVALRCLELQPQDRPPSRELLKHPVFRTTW

| SMILES | Kd |
| --- | --- |
| COCCNS(=O)(=O)Nc1cccc(Oc2c(C(=O)NC3CC3)c(Nc3ccc(I)cc3F)n(C)c(=O)c2C)c1Cl [US20230382863, Compound I-55] | 0.51 nM |
| Cc1c(Oc2cccc(NS(=O)(=O)NC3CC3)c2Cl)c(C(=O)NC2CC2)c(Nc2ccc(I)cc2F)n(C)c1=O [US20230382863, Compound I-42] | 0.57 nM |
| CNS(=O)(=O)Nc1cccc(Oc2c(C(=O)NC3CC3)c(Nc3ccc(I)cc3F)n(C)c(=O)c2C)c1OC(F)(F)F [US20230382863, Compound I-40] | 0.47 nM |

Continued, values first:

| Kd | SMILES |
| --- | --- |
| 0.48 nM | CNS(=O)(=O)Nc1cccc(Oc2c(C(=O)NC(C)C)c(Nc3ccc(I)cc3F)n(C)c(=O)c2C)c1Cl [US20230382863, Compound I-41] |
| 0.51 nM | CCNS(=O)(=O)Nc1cccc(Oc2c(C(=O)NC3CC3)c(Nc3ccc(I)cc3F)n(C)c(=O)c2C)c1Cl [US20230382863, Compound I-43] |
| 0.35 nM | CCNC(=O)c1c(Oc2cccc(NS(=O)(=O)NC)c2Cl)c(C)c(=O)n(C)c1Nc1ccc(I)cc1F [US20230382863, Compound I-54] |
| 0.38 nM | CNS(=O)(=O)Nc1cccc(Oc2c(C(=O)NCC(F)(F)F)c(Nc3ccc(I)cc3F)n(C)c(=O)c2C)c1Cl [US20230382863, Compound I-45] |
| 0.42 nM | CNS(=O)(=O)Nc1cccc(Oc2c(C(=O)NC3CC3)c(Nc3ccc(I)cc3F)n(C)c(=O)c2C)c1OC [US20230382863, Compound I-1] |
